Laboratory results taken from ChEMBL document CHEMBL3421625, “Discovery and optimization of novel antagonists to the human neurokinin-3 receptor for the treatment of sex-hormone disorders (Part I)” (J Med Chem, 2015).

Key:
[1] = system: Rattus norvegicus; experiment: Unbound AUC in Sprague-Dawley rat at 3 mg/kg, po by LC-MS/MS analysis; type: ADME, organism-based; design: dose 3 mg/kg, route oral; details: in vivo
[2] = biological target: Kappa-type opioid receptor (Homo sapiens) (UniProt P41145); experiment: Inhibition of KOR (unknown origin) at 10 uM relative to control
[3] = biological target: Delta-type opioid receptor (Rattus norvegicus) (UniProt P33533); experiment: Displacement of [3H]naloxone from delta opioid receptor in rat cerebral cortex at 1 uM after 40 mins by scintillation counting analysis relative to control; type: tissue-based
[4] = biological target: Kappa-type opioid receptor (Rattus norvegicus) (UniProt P34975); experiment: Inhibition of rat recombinant KOR expressed in CHO cells at 1 uM by radioligand displacement assay relative to control; type: cell-based
[5] = biological target: Sodium-dependent dopamine transporter (Homo sapiens) (UniProt Q01959); experiment: Displacement of [3H]BTCP from recombinant human dopamine transporter expressed in CHO cells at 1 uM after 120 mins by scintillation counting analysis relative to control; type: cell-based
[6] = in vivo; details: Sprague-Dawley, rat, iv, 1 mg/kg
[7] = biological target: Muscarinic acetylcholine receptor M3 (Homo sapiens) (UniProt P20309); experiment: Displacement of [3H]4-DAMP from recombinant human muscarinic M3 receptor expressed in CHO cells at 1 uM after 60 mins by scintillation counting analysis relative to control; type: cell-based
[8] = biological target: 5-hydroxytryptamine receptor 1A (Homo sapiens) (UniProt P08908); experiment: Inhibition of recombinant human 5HT1A receptor expressed in HEK293 cells at 1 uM by radioligand displacement assay relative to control; type: cell-based
[9] = biological target: D(3) dopamine receptor (Homo sapiens) (UniProt P35462); experiment: Displacement of [3H]methyl-spiperone from recombinant human dopamine D3 receptor expressed in CHO cells at 1 uM by scintillation counting analysis relative to control; type: cell-based
[10] = biological target: 5-hydroxytryptamine receptor 2A (Homo sapiens) (UniProt P28223); experiment: Displacement of [3H]ketanserin from recombinant human 5HT2A receptor expressed in HEK293 cells at 1 uM after 60 mins by scintillation counting analysis relative to control; type: cell-based
[11] = biological target: Muscarinic acetylcholine receptor M4 (Homo sapiens) (UniProt P08173); experiment: Displacement of [3H]4-DAMP from recombinant human muscarinic M4 receptor expressed in CHO cells at 1 uM after 60 mins by scintillation counting analysis relative to control; type: cell-based
[12] = system: Rattus norvegicus; experiment: Unbound Cmax in Sprague-Dawley rat at 3 mg/kg, po by LC-MS/MS analysis; type: ADME, organism-based; design: dose 3 mg/kg, route oral; details: in vivo
[13] = biological target: Muscarinic acetylcholine receptor M5 (Homo sapiens) (UniProt P08912); experiment: Displacement of [3H]4-DAMP from recombinant human muscarinic M5 receptor expressed in CHO cells at 1 uM after 60 mins by scintillation counting analysis relative to control; type: cell-based
[14] = biological target: Kappa-type opioid receptor (Homo sapiens) (UniProt P41145); experiment: Inhibition of KOR (unknown origin) at 1 uM relative to control
[15] = biological target: Sodium-dependent noradrenaline transporter (Homo sapiens) (UniProt P23975); experiment: Displacement of [3H]nisoxetine from recombinant human norepinephrine transporter expressed in CHO cells at 1 uM after 120 mins by scintillation counting analysis relative to control; type: cell-based
[16] = Fraction unbound in rat brain at 5 uM after 4 hrs by equilibrium dialysis method; type: ADME, tissue-based
[17] = biological target: Histamine H2 receptor (Homo sapiens) (UniProt P25021); experiment: Displacement of [125I]APT from recombinant human histamine H2 receptor expressed in CHO cells at 1 uM after 120 mins by scintillation counting analysis relative to control; type: cell-based
[18] = in vivo; details: Sprague-Dawley, rat, po, 3 mg/kg
[19] = system: Rattus norvegicus; experiment: Unbound AUC in Sprague-Dawley rat at 1 mg/kg, iv by LC-MS/MS analysis; type: ADME, organism-based; design: dose 1 mg/kg, route intravenous; details: in vivo
[20] = biological target: 5-hydroxytryptamine receptor 2B (Homo sapiens) (UniProt P41595); experiment: Displacement of [3H]mesulergine from recombinant human 5HT2B receptor expressed in CHO cells at 1 uM after 60 mins by scintillation counting analysis relative to control; type: cell-based
[21] = Fraction unbound in rat plasma at 5 uM after 4 hrs by equilibrium dialysis method; type: ADME, cell-free
[22] = biological target: 5-hydroxytryptamine receptor 7 (Homo sapiens) (UniProt P34969); experiment: Inhibition of recombinant human 5HT7 receptor expressed in CHO cells at 1 uM by radioligand displacement assay relative to control; type: cell-based
[23] = Lipophilicity, log D of the compound at pH 7.4; type: physicochemical; details: buffer, read-out: logD
[24] = biological target: Mu-type opioid receptor (Homo sapiens) (UniProt P35372); experiment: Inhibition of recombinant human mu opioid receptor expressed in HEK293 cells at 1 uM by radioligand displacement assay relative to control; type: cell-based
[25] = Total systemic clearance in Sprague-Dawley rat at 1 mg/kg, iv by LC-MS/MS analysis; type: ADME, organism-based; design: dose 1 mg/kg, route intravenous; details: in vivo
[26] = in vivo; details: Sprague-Dawley, rat, po, 3 mg/kg; remark: listed apart in the source
[27] = biological target: Prostaglandin E2 receptor EP4 subtype (Homo sapiens) (UniProt P35408); experiment: Inhibition of recombinant human prostanoid receptor EP4 expressed in HEK293 cells by radioligand displacement assay relative to control; type: cell-based; details: concentration not given here
[28] = biological target: Adenosine receptor A1 (Homo sapiens) (UniProt P30542); experiment: Displacement of [3H]DPCPX from recombinant human adenosine A1 receptor expressed in CHO cells after 60 mins by scintillation counting analysis relative to control; type: cell-based
[29] = Apparent permeability across apical to basolateral side in human Caco2 cells in presence of 0.1% bovine serum albumin; details: Caco-2
[30] = Apparent permeability across basolateral to apical side in human Caco2 cells in presence of 0.1% bovine serum albumin; details: Caco-2
[31] = biological target: Adenosine receptor A3 (Homo sapiens) (UniProt P0DMS8); experiment: Inhibition of recombinant human adenosine A3 receptor expressed in HEK293 cells by radioligand displacement assay relative to control; type: cell-based; details: concentration not given here
[32] = biological target: Gastrin/cholecystokinin type B receptor (Homo sapiens) (UniProt P32239); experiment: Inhibition of recombinant human CCK2 receptor expressed in CHO cells by radioligand displacement assay relative to control; type: cell-based; details: concentration not given here
[33] = in vivo; details: Sprague-Dawley, rat, iv, 1 mg/kg; remark: listed apart in the source
Description: Volume of distribution at steady state in Sprague-Dawley rat at 1 mg/kg, iv by LC-MS/MS analysis

[34] = biological target: Translocator protein (Homo sapiens) (UniProt P30536); experiment: Inhibition of benzodiazepine receptor (unknown origin) by radioligand displacement assay relative to control; details: concentration not given here
[35] = Half life in human liver microsomes; type: ADME
[36] = biological target: Cytochrome P450 2C9 (Homo sapiens, UniProt P11712); experiment: Inhibition of CYP2C9 (unknown origin) by luciferase reporter assay in presence of NADPH regeneration system; type: ADME
[37] = biological target: Cytochrome P450 2C19 (Homo sapiens, UniProt P33261); experiment: Inhibition of CYP2C19 (unknown origin) by luciferase reporter assay in presence of NADPH regeneration system
[38] = biological target: T1, Cytochrome P450 1A2 (Homo sapiens, UniProt P05177); experiment: Inhibition of CYP1A2 (unknown origin) by luciferase reporter assay in presence of NADPH regeneration system; type: ADME
T1 sequence (P05177 whole entry): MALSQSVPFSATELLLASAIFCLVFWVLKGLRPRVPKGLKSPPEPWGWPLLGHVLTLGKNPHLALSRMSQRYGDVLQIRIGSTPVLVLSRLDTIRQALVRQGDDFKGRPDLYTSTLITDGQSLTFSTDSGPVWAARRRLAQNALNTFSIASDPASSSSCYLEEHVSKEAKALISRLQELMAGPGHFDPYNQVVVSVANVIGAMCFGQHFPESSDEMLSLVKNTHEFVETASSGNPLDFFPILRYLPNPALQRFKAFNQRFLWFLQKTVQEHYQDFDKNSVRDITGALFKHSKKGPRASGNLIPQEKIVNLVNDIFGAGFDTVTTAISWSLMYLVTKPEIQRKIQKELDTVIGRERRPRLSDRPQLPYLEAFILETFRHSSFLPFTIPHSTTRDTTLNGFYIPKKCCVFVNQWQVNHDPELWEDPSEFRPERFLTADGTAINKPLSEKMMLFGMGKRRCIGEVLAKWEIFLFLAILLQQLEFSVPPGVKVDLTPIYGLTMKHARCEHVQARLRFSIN

[39] = Solubility of the compound in PBS buffer at pH 7.4 by shake-flask method; type: physicochemical
[40] = biological target: Cytochrome P450 2D6 (Homo sapiens, UniProt P10635); experiment: Inhibition of CYP2D6 (unknown origin) by luciferase reporter assay in presence of NADPH regeneration system; type: ADME
[41] = biological target: T2, Neuromedin-K receptor (Homo sapiens, UniProt P29371)
T2 sequence (P29371 whole entry): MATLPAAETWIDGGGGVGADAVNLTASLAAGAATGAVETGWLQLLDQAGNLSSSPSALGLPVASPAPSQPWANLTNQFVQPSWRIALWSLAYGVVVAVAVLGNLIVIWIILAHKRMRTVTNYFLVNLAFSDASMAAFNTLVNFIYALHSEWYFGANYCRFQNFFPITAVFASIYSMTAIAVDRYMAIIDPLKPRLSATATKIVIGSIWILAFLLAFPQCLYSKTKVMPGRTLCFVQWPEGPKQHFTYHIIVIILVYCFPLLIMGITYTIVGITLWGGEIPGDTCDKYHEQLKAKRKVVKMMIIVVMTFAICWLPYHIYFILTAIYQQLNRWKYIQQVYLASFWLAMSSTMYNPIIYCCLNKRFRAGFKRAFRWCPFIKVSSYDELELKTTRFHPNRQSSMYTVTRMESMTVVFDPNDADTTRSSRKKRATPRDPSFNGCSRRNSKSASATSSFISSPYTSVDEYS

[42] = biological target: T2, Neuromedin-K receptor; experiment: biochemical
Description: Displacement of [3H]-SB222200 from recombinant human NK3R expressed in CHO cell membranes after 90 mins by scintillation counting analysis

[43] = biological target: Cytochrome P450 3A4 (Homo sapiens, UniProt P08684); experiment: Inhibition of CYP3A4 (unknown origin) by luciferase reporter assay in presence of NADPH regeneration system; type: ADME
[44] = Half life in rat liver microsomes; type: ADME
[45] = Ratio of apparent permeability across apical to basolateral over basolateral to apical side in human Caco2 cells in presence of 0.1% bovine serum albumin; type: ADME, cell-based; details: Caco-2
[46] = biological target: T3, Substance-K receptor (Homo sapiens, UniProt P21452); experiment: Displacement of [125I]NKA from human NK2R expressed in CHO cell membranes after 90 mins by scintillation counting analysis
T3 sequence (P21452 whole entry): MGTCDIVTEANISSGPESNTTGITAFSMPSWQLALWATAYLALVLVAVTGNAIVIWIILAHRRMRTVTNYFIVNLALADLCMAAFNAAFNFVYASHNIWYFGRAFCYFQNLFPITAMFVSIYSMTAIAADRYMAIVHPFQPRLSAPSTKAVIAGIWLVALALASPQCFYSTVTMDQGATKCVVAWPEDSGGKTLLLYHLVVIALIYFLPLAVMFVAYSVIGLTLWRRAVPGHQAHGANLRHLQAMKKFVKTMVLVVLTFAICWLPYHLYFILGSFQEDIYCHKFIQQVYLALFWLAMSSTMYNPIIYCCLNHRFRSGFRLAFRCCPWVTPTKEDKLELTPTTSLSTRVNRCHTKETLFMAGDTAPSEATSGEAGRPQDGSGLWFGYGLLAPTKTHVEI

Sequence of Kappa-type opioid receptor (Homo sapiens) (P41145 whole entry): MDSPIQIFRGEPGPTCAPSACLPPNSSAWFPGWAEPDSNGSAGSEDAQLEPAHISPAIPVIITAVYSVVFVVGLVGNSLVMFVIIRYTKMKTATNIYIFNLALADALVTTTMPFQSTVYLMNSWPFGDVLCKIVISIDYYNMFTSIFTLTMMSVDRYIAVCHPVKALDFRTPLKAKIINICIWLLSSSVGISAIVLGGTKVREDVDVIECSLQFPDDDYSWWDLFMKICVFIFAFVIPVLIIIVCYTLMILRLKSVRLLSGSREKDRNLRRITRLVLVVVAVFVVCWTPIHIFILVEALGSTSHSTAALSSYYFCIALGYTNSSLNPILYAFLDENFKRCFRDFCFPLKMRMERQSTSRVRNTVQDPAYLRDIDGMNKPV
Sequence of Cytochrome P450 2C19 (P33261 whole entry): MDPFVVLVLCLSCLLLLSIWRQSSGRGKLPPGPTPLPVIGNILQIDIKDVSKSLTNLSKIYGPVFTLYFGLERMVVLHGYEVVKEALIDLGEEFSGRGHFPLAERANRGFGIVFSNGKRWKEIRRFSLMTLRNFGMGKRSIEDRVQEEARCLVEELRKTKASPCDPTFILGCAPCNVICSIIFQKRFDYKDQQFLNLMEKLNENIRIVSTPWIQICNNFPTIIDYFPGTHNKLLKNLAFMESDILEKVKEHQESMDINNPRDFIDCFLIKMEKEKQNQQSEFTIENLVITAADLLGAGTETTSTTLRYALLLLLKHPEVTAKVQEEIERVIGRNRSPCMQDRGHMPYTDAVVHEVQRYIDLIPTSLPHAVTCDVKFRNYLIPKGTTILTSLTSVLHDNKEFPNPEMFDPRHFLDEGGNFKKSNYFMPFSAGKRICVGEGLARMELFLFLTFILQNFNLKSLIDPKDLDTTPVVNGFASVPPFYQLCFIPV
Sequence of 5-hydroxytryptamine receptor 1A (Homo sapiens) (P08908 whole entry): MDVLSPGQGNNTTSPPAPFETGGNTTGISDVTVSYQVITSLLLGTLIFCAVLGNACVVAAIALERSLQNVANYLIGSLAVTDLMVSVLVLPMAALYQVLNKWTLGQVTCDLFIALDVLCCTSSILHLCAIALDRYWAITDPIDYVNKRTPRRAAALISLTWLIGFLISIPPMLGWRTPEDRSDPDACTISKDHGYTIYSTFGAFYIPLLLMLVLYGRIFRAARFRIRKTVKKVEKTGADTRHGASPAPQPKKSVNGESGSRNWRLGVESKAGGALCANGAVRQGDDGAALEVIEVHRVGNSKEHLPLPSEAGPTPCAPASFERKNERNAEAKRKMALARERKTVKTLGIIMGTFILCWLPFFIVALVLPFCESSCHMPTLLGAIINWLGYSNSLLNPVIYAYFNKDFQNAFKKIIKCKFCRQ
Sequence of Translocator protein (Homo sapiens) (P30536 whole entry): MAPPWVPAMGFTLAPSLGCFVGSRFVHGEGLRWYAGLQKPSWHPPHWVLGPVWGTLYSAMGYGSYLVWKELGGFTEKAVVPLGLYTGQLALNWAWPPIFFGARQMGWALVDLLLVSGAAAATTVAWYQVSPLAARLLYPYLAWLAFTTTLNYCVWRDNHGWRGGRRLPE
Sequence of Prostaglandin E2 receptor EP4 subtype (Homo sapiens) (P35408 whole entry): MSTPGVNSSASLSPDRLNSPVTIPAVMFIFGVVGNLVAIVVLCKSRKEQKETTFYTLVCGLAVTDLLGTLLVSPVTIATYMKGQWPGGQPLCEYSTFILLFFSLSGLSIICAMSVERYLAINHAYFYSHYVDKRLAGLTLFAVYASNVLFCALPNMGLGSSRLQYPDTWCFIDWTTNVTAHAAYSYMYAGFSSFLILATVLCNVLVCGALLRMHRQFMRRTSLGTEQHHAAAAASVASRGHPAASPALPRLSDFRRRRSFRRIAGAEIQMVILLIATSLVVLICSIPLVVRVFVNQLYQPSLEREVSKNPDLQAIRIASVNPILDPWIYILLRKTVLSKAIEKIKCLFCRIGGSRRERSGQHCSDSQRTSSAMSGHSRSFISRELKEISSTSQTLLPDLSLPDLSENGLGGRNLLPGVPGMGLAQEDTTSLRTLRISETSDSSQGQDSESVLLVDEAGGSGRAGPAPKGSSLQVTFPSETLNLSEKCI
Sequence of 5-hydroxytryptamine receptor 2B (Homo sapiens) (P41595 whole entry): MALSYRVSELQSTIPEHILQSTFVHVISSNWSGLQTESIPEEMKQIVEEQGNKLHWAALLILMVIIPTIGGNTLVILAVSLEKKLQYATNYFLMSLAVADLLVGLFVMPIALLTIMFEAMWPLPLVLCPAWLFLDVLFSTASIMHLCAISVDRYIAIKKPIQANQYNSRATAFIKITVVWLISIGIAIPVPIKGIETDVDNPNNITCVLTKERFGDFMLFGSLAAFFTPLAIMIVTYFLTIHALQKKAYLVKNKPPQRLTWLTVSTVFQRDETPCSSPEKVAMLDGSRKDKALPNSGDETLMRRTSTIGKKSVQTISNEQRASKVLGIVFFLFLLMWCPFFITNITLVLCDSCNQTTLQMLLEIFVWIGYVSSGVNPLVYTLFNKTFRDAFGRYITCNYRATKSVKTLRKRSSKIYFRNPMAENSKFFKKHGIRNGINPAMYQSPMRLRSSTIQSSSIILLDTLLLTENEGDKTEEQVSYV
Sequence of Muscarinic acetylcholine receptor M3 (Homo sapiens) (P20309 whole entry, looked up): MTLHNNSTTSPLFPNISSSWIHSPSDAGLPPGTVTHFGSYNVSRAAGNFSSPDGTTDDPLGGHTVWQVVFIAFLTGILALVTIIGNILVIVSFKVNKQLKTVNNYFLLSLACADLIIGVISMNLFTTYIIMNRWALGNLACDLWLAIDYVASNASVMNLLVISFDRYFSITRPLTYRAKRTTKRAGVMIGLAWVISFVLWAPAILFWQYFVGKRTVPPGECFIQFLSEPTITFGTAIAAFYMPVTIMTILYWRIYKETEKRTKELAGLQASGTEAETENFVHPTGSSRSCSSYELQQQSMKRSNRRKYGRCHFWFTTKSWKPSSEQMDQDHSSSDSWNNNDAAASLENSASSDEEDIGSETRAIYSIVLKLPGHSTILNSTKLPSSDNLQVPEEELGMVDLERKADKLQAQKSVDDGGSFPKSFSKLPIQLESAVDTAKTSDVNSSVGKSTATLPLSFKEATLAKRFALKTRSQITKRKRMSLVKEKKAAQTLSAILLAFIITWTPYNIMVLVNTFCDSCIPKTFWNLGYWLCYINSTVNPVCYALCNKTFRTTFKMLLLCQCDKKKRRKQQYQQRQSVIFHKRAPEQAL
Sequence of Adenosine receptor A3 (Homo sapiens) (P0DMS8 whole entry): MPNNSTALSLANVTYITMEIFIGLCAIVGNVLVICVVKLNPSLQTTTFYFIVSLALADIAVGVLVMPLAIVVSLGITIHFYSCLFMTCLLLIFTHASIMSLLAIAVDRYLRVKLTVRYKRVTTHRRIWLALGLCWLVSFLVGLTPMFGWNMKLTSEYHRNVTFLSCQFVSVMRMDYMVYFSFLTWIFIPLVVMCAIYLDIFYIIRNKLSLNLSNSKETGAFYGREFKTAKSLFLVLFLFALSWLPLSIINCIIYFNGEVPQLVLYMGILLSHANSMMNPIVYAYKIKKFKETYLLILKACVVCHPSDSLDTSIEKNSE
Sequence of Sodium-dependent noradrenaline transporter (Homo sapiens) (P23975 whole entry): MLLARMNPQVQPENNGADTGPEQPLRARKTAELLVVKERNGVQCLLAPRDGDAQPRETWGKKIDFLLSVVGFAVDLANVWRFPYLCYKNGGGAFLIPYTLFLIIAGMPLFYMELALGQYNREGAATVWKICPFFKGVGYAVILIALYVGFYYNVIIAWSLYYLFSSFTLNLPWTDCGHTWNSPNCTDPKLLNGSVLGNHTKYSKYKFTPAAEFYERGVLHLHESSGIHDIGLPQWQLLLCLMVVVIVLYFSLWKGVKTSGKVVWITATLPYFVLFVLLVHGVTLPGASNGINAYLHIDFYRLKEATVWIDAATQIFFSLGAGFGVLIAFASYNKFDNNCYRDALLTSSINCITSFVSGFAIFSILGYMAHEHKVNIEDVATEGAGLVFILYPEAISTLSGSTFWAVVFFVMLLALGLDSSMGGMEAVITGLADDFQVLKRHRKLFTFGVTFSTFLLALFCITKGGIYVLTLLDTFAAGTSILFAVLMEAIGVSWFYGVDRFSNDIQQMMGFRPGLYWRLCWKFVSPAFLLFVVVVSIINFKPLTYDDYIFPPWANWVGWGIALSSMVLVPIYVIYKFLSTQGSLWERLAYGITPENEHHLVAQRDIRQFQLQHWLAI
Sequence of Sodium-dependent dopamine transporter (Homo sapiens) (Q01959 whole entry): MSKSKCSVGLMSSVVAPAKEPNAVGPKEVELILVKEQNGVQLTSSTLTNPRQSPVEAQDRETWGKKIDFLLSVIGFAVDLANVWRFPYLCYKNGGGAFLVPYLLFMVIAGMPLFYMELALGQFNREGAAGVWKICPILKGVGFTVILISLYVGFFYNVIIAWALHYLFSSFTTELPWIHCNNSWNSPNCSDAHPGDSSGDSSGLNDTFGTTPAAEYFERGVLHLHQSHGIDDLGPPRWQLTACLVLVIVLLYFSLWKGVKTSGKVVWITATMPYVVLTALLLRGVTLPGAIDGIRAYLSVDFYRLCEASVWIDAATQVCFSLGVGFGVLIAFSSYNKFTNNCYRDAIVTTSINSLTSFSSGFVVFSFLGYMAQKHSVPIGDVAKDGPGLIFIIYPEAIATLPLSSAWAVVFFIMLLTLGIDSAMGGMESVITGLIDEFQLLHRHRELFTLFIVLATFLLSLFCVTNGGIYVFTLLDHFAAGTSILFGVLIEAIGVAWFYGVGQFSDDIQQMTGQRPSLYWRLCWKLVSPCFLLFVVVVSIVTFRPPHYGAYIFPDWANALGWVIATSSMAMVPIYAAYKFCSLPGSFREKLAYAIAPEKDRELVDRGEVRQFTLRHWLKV
Sequence of Delta-type opioid receptor (Rattus norvegicus) (P33533 whole entry): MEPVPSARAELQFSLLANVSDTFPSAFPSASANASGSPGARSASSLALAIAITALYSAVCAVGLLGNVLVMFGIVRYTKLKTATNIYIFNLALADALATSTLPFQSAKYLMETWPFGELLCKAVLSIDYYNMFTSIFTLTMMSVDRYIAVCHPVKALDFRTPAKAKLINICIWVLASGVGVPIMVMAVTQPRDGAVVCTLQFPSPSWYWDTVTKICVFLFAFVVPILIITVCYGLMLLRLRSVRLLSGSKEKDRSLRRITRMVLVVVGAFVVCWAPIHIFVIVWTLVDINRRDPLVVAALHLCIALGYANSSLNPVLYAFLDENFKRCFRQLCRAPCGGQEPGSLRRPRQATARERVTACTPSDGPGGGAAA

CC(=O)N(C)C1(c2ccccc2)CCN(CCC[C@]2(c3ccc(Cl)c(Cl)c3)CCCN(C(=O)c3ccccc3)C2)CC1 [OSANETANT]
fAUC [1]: 0.1 µM·min
inhibition [2]: 100%
inhibition [3]: > 50%
inhibition [4]: > 50%
inhibition [5]: > 50%
half-life [6]: 2.02 h
inhibition [7]: > 50%
inhibition [8]: > 50%
inhibition [9]: > 50%
inhibition [10]: > 50%
inhibition [11]: > 50%
fCmax [12]: 0.42 nM
inhibition [13]: > 50%
inhibition [14]: 75%
inhibition [15]: > 50%
fraction unbound at 4 h, 5 µM [16]: 0.001
inhibition [17]: > 50%
Tmax [18]: 0.75 h
fAUC [19]: 0.2 µM·min
inhibition [20]: > 50%
fraction unbound at 4 h, 5 µM [21]: 0.006
inhibition [22]: > 50%
logD [23]: 3.4
inhibition [24]: > 50%

CC[C@H](NC(=O)c1c(O)c(-c2ccccc2)nc2ccccc12)c1ccccc1 [TALNETANT]
fAUC [1]: 0.7 µM·min
inhibition [2]: 12%
clearance [25]: 2 mL/min/kg
half-life [6]: 7.47 h
bioavailability [26]: 47%
inhibition [27]: > 60%
fCmax [12]: 2.65 nM
inhibition [28]: > 60%
Papp A→B [29]: 87.2 ×10⁻⁶ cm/s
Papp B→A [30]: 98.5 ×10⁻⁶ cm/s
fraction unbound at 4 h, 5 µM [16]: 0.01
inhibition [31]: > 60%
Tmax [18]: 1 h
fAUC [19]: 0.5 µM·min
fraction unbound at 4 h, 5 µM [21]: 0.0003
inhibition [32]: > 60%
Vd [33]: 1.5 L/kg
inhibition [34]: > 60%

O=C(c1ccc(F)cc1)N1CCn2c(nnc2-c2ccccn2)C1
half-life [35]: > 4 h
bioavailability [26]: 108%
IC50 [36]: 66 µM
IC50 [37]: 14 µM
IC50 [38]: 27 µM
solubility thermodynamic [39]: ≥ 200 µM
IC50 [40]: 15 µM
IC50 [41]: 4 µM
Ki [42]: 4.5 µM
IC50 [43]: > 100 µM
half-life [44]: > 4 h
logD [23]: 1.1

CC(C)NCC(O)COc1cccc2ccccc12 (stereo not drawn) [PROPRANOLOL]
Papp A→B [29]: ≥ 45 ×10⁻⁶ cm/s
Papp B→A [30]: ≥ 45 ×10⁻⁶ cm/s
Ratio [45]: 1

CSCC[C@H](NC(=O)[C@H](CC(C)C)NC(=O)CNC(=O)[C@H](Cc1ccccc1)N(C)C(=O)[C@H](Cc1ccccc1)NC(=O)[C@H](CC(=O)O)NC(=O)CCC(=O)O)C(N)=O [SENKTIDE]
Ki [46]: > 10 µM
